Values quoted from earlier work as cited in patent US20090048110A1, “Orchid Culturing Method” (priority 2005, published 2009).

System: Dendrobium
Conditions: application to the mature pseudobulbs, but not the developing ones

## c1ccc(CNc2ncnc3nc[nH]c23)cc1 [6-BAP, 6-benzylaminopurine]
  triggering of spiking: shown to trigger spiking
